Experimental data: ChEMBL document CHEMBL1201862, “PubChem BioAssay data set” (2004)
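A five-concentration, 48-hour dose response in 96-well plates underlies each endpoint, interpolated linearly between surrounding concentrations. GI50 is the concentration that inhibits growth by half.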 Activity calls are given as the source filed them. No stated cut-off is given here; in the data, active = GI50 up to about 1.1 µM and inactive = higher.

Columns and labels:
Assay in all cases: NCI tumour cell line growth inhibition, 48 h
LOX IMVI = system: LOX IMVI
MDA-N = system: MDA-N
SK-MEL-5 = system: SK-MEL-5
SR = system: SR
OVCAR-5 = system: OVCAR-5
HOP-92 = system: HOP-92
NCI-H226 = system: NCI-H226
SNB-75 = system: SNB-75
SK-OV-3 = system: SK-OV-3
CCRF-CEM = system: CCRF-CEM
K562 = system: K562
UACC-62 = system: UACC-62
PC-3 = system: PC-3
COLO 205 = system: COLO 205
U-251 = system: U-251
Malme-3M = system: Malme-3M
A498 = system: A498
T47D = system: T47D
SW-620 = system: SW-620
OVCAR-8 = system: OVCAR-8

Measured: GI50

Cc1ccc2nc3n(c2c1)C(c1c(F)cccc1F)SC3 (configuration not stated)
inactive: LOX IMVI > 100 µM | MDA-N > 100 µM | SK-MEL-5 > 100 µM | SR > 100 µM | OVCAR-5 > 100 µM | HOP-92 49.3 µM | NCI-H226 > 100 µM | SNB-75 > 100 µM | SK-OV-3 > 100 µM | CCRF-CEM > 100 µM | K562 > 100 µM | UACC-62 > 100 µM | PC-3 > 100 µM | COLO 205 > 100 µM | U-251 > 100 µM | Malme-3M > 100 µM | A498 > 100 µM | T47D > 100 µM | SW-620 > 100 µM

Cc1ccc(S(=O)(=O)NCc2cccc([N+](=O)[O-])c2)cc1
inactive: LOX IMVI > 100 µM | MDA-N > 100 µM | SK-MEL-5 > 100 µM | SR 5.3 µM | OVCAR-5 > 100 µM | HOP-92 > 100 µM | NCI-H226 > 100 µM | SNB-75 > 100 µM | SK-OV-3 > 100 µM | CCRF-CEM 27.8 µM | OVCAR-8 > 100 µM | UACC-62 > 100 µM | PC-3 > 100 µM | COLO 205 > 100 µM | U-251 > 100 µM | Malme-3M > 100 µM | A498 > 100 µM | T47D > 100 µM | SW-620 > 100 µM

CCC(=O)Nc1ccc(NCC(=O)Nc2ccc(Cl)cc2)cc1
inactive: LOX IMVI 13.1 µM | MDA-N 17.2 µM | SK-MEL-5 15.8 µM | SR 21.3 µM | OVCAR-5 13.9 µM | HOP-92 17.6 µM | NCI-H226 18.2 µM | SNB-75 25.5 µM | SK-OV-3 16.9 µM | CCRF-CEM 12.5 µM | K562 24 µM | OVCAR-8 27.5 µM | UACC-62 12.4 µM | PC-3 15.1 µM | COLO 205 16.9 µM | Malme-3M 19.7 µM | A498 17.7 µM | T47D 12.8 µM | SW-620 24.7 µM
